The text below walks through data of the supplement of paper PMC11061612.

Assay in all cases: combination Emax (second highest fraction inhibited in the dose matrix, 72 h); higher = more inhibition; extreme values may be limits of the assay
Assay [1] relates to SKN-3 (Head and Neck Carcinoma). A digest of the protocol: (§1)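 Cell lines grown in DMEM/F12 or RPMI with 10% FBS were plated in 1536-well plates and held 24 hours at 37°C, 5% CO2 before 72 hours of exposure to two-drug dose matrices, with DMSO typically at 0.2%. CellTiter-Glo 2.0 luminescence gave viability, which was converted to inhibition. Vehicle wells were set to 0 and blank wells to 1. Combination Emax is the second-highest inhibition in the matrix, and Bliss excess is the observed combination effect minus the expected EA + EB − EA·EB, where EA and EB are the single-agent effects.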

The test system of the next assay is MSTO-211H (Mesothelioma). A digest of the protocol: as §1
The subject of the next assay is SK-MEL-1 (Melanoma). In short, it runs like this: as §1
The subject of assay [2] is SW948 (Colorectal Carcinoma). In short, it runs like this: as §1
Assay [3] relates to RCC10RGB (Kidney Carcinoma). A digest of the protocol:
as §1

For assay [4], the system named is HCT-116 (Colorectal Carcinoma). In short, it runs like this: as §1
For another assay, the system named is Saos-2 (Osteosarcoma). A digest of the protocol:
as §1

In the next assay the test system is MCF7 (Breast Carcinoma). In short, it runs like this: as §1
The next assay has as its system H4 (Low Grade Glioma). In short, it runs like this: as §1
The subject of assay [5] is SW48 (Colorectal Carcinoma). In short, it runs like this:
as §1

Assay [6] has as its system EFM-192A (Breast Carcinoma). A digest of the protocol:
as §1

Assay [7] concerns NOMO-1 (Acute Myeloid Leukemia). A digest of the protocol:
as §1

Assay [8] relates to D-283MED (Other Solid Carcinomas). In short, it runs like this: as §1
For assay [9], the system named is CAL-39 (Other Solid Carcinomas). A digest of the protocol:
as §1

The subject of another assay is HuO9 (Osteosarcoma). In short, it runs like this: as §1
Assay [10] deals with HCC-827 (Lung Adenocarcinoma). In short, it runs like this: as §1
In assay [11] the test system is NCI-H1688 (Small Cell Lung Carcinoma). In short, it runs like this: as §1
The subject of assay [12] is SK-LMS-1 (Other Solid Carcinomas). A digest of the protocol: as §1
The test system of assay [13] is SLVL (B-Cell Non-Hodgkin's Lymphoma). In short, it runs like this: as §1

On to `NC1(C(=O)N[C@@H](CCO)c2ccc(Cl)cc2)CCN(c2ncnc3[nH]ccc23)CC1` [Capivasertib] + C[C@@H]1COCCN1C2=NC(=NC(=C2)C3(CC3)[S@](=N)(=O)C)C4=C5C=CNC5=NC=C4 [AZD6738] (first compound max 10 µM, 7x7, partner max 10 µM), for which the “combination Emax” value amounted to 0.566 in [1]; 0.304 with MSTO-211H (Mesothelioma); 0.296 in the assay on SK-MEL-1 (Melanoma); 0.675 in [2]; 0.469 in assay [3]; 0.765 in assay [4]. The “combination Emax” value came out at 0.586 in the assay on Saos-2 (Osteosarcoma); 0.731 in the assay on MCF7 (Breast Carcinoma); 0.809 in the assay on H4 (Low Grade Glioma); 0.759 in assay [5]; 0.581 in [6]; 0.968 in assay [7]. Further, the “combination Emax” value came out at 0.975 in [8]; 0.653 in [9]; 0.79 in the assay on HuO9 (Osteosarcoma); 0.576 in [10]; 0.445 in assay [11]; 0.566 in [12]. For the same molecule, the “combination Emax” value in [13] stood at 0.845.
For the molecule `COc1nnc2ccc(N3CCC(c4ccc(OCCN5CCN(C)C(=O)[C@H]5C)cc4)CC3)nn12` [AZD5153] + C[C@@H]1COCCN1C2=NC(=NC(=C2)C3(CC3)[S@](=N)(=O)C)C4=C5C=CNC5=NC=C4 [AZD6738] (first compound max 1 µM, 7x7, partner max 10 µM), the “combination Emax” value in [1] was 0.634; in the assay with MSTO-211H (Mesothelioma), 0.359; with SK-MEL-1 (Melanoma), 0.689; in [2] it was 0.675; in [3], 0.572; in assay [4] it was 0.88. The “combination Emax” value with Saos-2 (Osteosarcoma) came to 0.843; with MCF7 (Breast Carcinoma), 0.747; in the assay with H4 (Low Grade Glioma), 0.796; in assay [5], 0.752; in assay [6], 0.524; in assay [7], 1. Further, the “combination Emax” value in assay [8] stood at 0.995; in [9], 0.797; in the assay with HuO9 (Osteosarcoma) it was 0.938; in [10], 0.578; in assay [11], 0.633; in assay [12], 0.61. In addition, the “combination Emax” value in assay [13] turned out to be 0.689.
Turning to `COc1nnc2ccc(N3CCC(c4ccc(OCCN5CCN(C)C(=O)[C@H]5C)cc4)CC3)nn12` [AZD5153] + CC1(C)CCC(CN2CCN(c3ccc(C(=O)NS(=O)(=O)c4ccc(NCC5CCOCC5)c([N+](=O)[O-])c4)c(Oc4cnc5[nH]ccc5c4)c3)CC2)=C(c2ccc(Cl)cc2)C1 [Venetoclax] (first compound max 1 µM, 7x7, partner max 1 µM), the “combination Emax” value in assay [1] turned out to be 0.467; with MSTO-211H (Mesothelioma), 0.271; with SK-MEL-1 (Melanoma) it was 0.625; in [2], 0.513; in assay [3] it was 0.539; in assay [4], 0.666. Moreover, the “combination Emax” value in the assay on Saos-2 (Osteosarcoma) came to 0.535; in the assay on MCF7 (Breast Carcinoma), 0.669; with H4 (Low Grade Glioma), 0.677; in assay [5], 0.631; in assay [6] it was 0.326; in assay [7], 1. Also, the “combination Emax” value amounted to 0.835 in assay [8]; 0.631 in assay [9]; 0.796 in the assay with HuO9 (Osteosarcoma); 0.348 in [10]; 0.384 in assay [11]; 0.507 in assay [12]. The “combination Emax” value in assay [13] was 0.802.
Regarding `CN(C)CCCOc1ccc(-c2ccc3ncc4c(c3c2)n(C2CCOCC2)c(=O)n4C)cn1` [AZD0156] + O=C(c1cc(Cc2n[nH]c(=O)c3ccccc23)ccc1F)N1CCN(C(=O)C2CC2)CC1 [Olaparib] (first compound max 3 µM, partner max 3 µM), the “combination Emax” value was found to be 0.283 in assay [1]; 0.0713 in the assay on MSTO-211H (Mesothelioma); 0.0982 with SK-MEL-1 (Melanoma); 0.252 in [2]; 0.229 in assay [3]; 0.281 in [4]. For the same molecule, the “combination Emax” value was 0.218 with Saos-2 (Osteosarcoma); 0.324 in the assay with MCF7 (Breast Carcinoma); 0.536 in the assay on H4 (Low Grade Glioma); 0.248 in [6]; 0.321 in assay [7]; 0.557 in assay [8]. Moreover, the “combination Emax” value in assay [9] stood at 0.331; in the assay with HuO9 (Osteosarcoma), 0.49; in assay [10], 0.325; in [11] it was 0.206; in assay [12], 0.392; in assay [13], 0.313.
Turning to `Cc1nc(-c2cn3c(n2)-c2ccc(-c4cnn(C(C)(C)C(N)=O)c4)cc2OCC3)n(C(C)C)n1` [Taselisib] + O=C(Nc1ccc2[nH]nc(-c3ccncc3)c2c1)[C@@H]1CCN(CC(=O)N2CCN(c3ccc(-c4ncccn4)cc3)CC2)C1 [SCH772984] (first compound max 10 µM, 7x7, partner max 5 µM), the “combination Emax” value in the assay with MSTO-211H (Mesothelioma) amounted to 0.806; in the assay on SK-MEL-1 (Melanoma), 0.893; in assay [2], 0.964; in assay [4], 1; with Saos-2 (Osteosarcoma), 0.703; with H4 (Low Grade Glioma), 0.68. Further, the “combination Emax” value in assay [5] came out at 0.942; in assay [7], 0.932; in [8], 0.775; in assay [9], 1; in [12], 0.924; in [13], 0.667.
For the molecule `C=CCn1c(=O)c2cnc(Nc3ccc(N4CCN(C)CC4)cc3)nc2n1-c1cccc(C(C)(C)O)n1` [AZD1775] + C1CN(CCC1(C(=O)N[C@@H](CCO)C2=CC=C(C=C2)Cl)N)C3=NC=NC4=C3C=CN4 [Capivasertib] (first compound max 3 µM, partner max 3 µM), the “combination Emax” value was found to be 0.61 in assay [1]; 0.352 in the assay on MSTO-211H (Mesothelioma); 0.336 in the assay on SK-MEL-1 (Melanoma); 0.799 in assay [2]; 0.583 in assay [3]; 0.667 in assay [4]. Moreover, the “combination Emax” value with Saos-2 (Osteosarcoma) came out at 0.757; with MCF7 (Breast Carcinoma), 0.706; in the assay with H4 (Low Grade Glioma), 0.942; in assay [6], 0.494; in assay [7], 0.964; in assay [8] it was 0.904. Moreover, the “combination Emax” value was found to be 0.782 in assay [9]; 0.902 in the assay with HuO9 (Osteosarcoma); 0.655 in [10]; 0.687 in [11]; 0.635 in assay [12]; 0.87 in assay [13].
For the molecule `CS(=O)(=O)CCNCc1ccc(-c2ccc3ncnc(Nc4ccc(OCc5cccc(F)c5)c(Cl)c4)c3c2)o1` [Lapatinib] + NC1(c2ccc(-c3nc4ccn5c(=O)[nH]nc5c4cc3-c3ccccc3)cc2)CCC1 [MK-2206] (first compound max 10 µM, 7x7, partner max 10 µM), the “combination Emax” value in assay [1] was determined as 0.835; in the assay on MSTO-211H (Mesothelioma) it was 0.126; in the assay with SK-MEL-1 (Melanoma) it was 0.888; in assay [2], 0.655; in assay [4], 0.891; in the assay on Saos-2 (Osteosarcoma), 0.426. The “combination Emax” value in the assay on MCF7 (Breast Carcinoma) came out at 0.953; in the assay on H4 (Low Grade Glioma), 0.883; in assay [5] it was 0.847; in assay [7], 0.778; in assay [8], 0.96; in assay [9] it was 0.999. Also, the “combination Emax” value in the assay with HuO9 (Osteosarcoma) was 0.995; in assay [11], 0.819; in assay [12], 0.927; in [13] it was 0.81.
